# Laboratory results from US6821967B2, “Substituted piperazine derivatives, the preparation thereof and their use as medicaments” (Boehringer Ingelheim Pharma KG, priority 1999, dated 2004).
compound,measurement,value
"C[C@@H]1CN(c2ccc3ccccc3n2)C[C@H](C)N1CCCCC1(C(=O)NCC(F)(F)F)c2ccccc2-c2ccccc21 [Example 42, 9-[4-(cis-2,6-dimethyl-4-quinolin-2-yl-piperazin-1-yl)-butyl]-9H-fluorene-9-carboxylic acid-(2,2,2-trifluoro-ethyl)-amide]",melting point,169 °C
"C[C@@H]1CN(c2ncc3ccccc3n2)C[C@H](C)N1CCCCC1(C(=O)NCc2ccc(F)cc2)c2ccccc2-c2ccccc21 [Example 67, 9-[4-(cis-2,6-dimethyl-4-quinazoline-2-yl-piperazin-1-yl)-butyl]-9H-fluorene-9-carboxylic acid-4-fluoro-benzylamide]",melting point,172 °C
"COC(=O)CCNC(=O)C1(CCCCN2CCN(c3ccc4ccccc4n3)CC2)c2ccccc2-c2ccccc21 [Example 94, 9-[4-(4-quinolin-2-yl-piperazin-1-yl)-butyl]-9H-fluorene-9-carboxylic acid-(2-methoxycarbonyl-ethyl)-amide]",melting point,110 to 112 °C
"COc1cccc(CNC(=O)C2(CCCCN3CCN(c4ccc5ccccc5n4)CC3)c3ccccc3-c3ccccc32)c1 [Example 81, 9-[4-(4-quinolin-2-yl-piperazin-1-yl)-butyl]-9H-fluorene-9-carboxylic acid-3-methoxy-benzylamide]",melting point,114 to 116 °C
"Cn1c(N2CCN(CCCCC3(C(=O)NCC(F)(F)F)c4ccccc4-c4ccccc43)CC2)nc2cc(F)ccc21 [Example 18, 9-{4-[4-(5-fluoro-1-methyl-1H-benzimidazol-2-yl)-piperazin-1-yl]-butyl}-9H-fluorene-9-carboxylic acid-(2,2,2-trifluoro-ethyl)-amide]",melting point,59 °C
"O=C(NCC(F)(F)F)C1(CCCCN2CCN(c3ccc4ccccc4n3)CC2)c2ccccc2-c2ccccc21 [Example 3, 9-[4-(4-(quinolin-2-yl)-piperazin-1-yl)-butyl]-9H-fluorene-9-carboxylic acid-(2,2,2-trifluoro-ethyl)-amide]",melting point,56 to 57 °C
"O=C(NCC(F)(F)C(F)(F)F)C1(CCCCN2CCN(c3ccc4ccccc4n3)CC2)c2ccccc2-c2ccccc21 [Example 86, 9-[4-(4-quinolin-2-yl-piperazin-1-yl)-butyl]-9H-fluorene-9-carboxylic acid-(2,2,3,3,3-pentafluoro-propyl)-amide]",melting point,120 °C
"O=C(NCC(F)(F)F)C1(CCCCN2CCN(c3nc4ccc(Cl)cc4s3)CC2)c2ccccc2-c2ccccc21 [Example 24, 9-{4-[4-(6-chloro-benzothiazol-2-yl)-piperazin-1-yl]-butyl}-9H-fluorene-9-carboxylic acid-(2,2,2-trifluoro-ethyl)-amide]",melting point,187 °C
"COCCCNC(=O)C1(CCCCN2CCN(c3ccc4ccccc4n3)CC2)c2ccccc2-c2ccccc21 [Example 93, 9-[4-(4-quinolin-2-yl-piperazin-1-yl)-butyl]-9H-fluorene-9-carboxylic acid-(3-methoxy-propyl)-amide]",melting point,87 °C
"O=C(NCC(F)(F)F)C1(CCCCN2CCN(c3nc4ccccc4n3Cc3ccccc3)CC2)c2ccccc2-c2ccccc21 [Example 13, 9-{4-[4-(1-benzyl-1H-benzimidazol-2-yl)-piperazin-1-yl]-butyl}-9H-fluorene-9-carboxylic acid-(2,2,2-trifluoro-ethyl)-amide]",melting point,60 °C
"O=C(NCC(F)(F)F)C1(CCCCN2CCN(c3ccc4c(Cl)cccc4n3)CC2)c2ccccc2Oc2ccccc21 [Example 104, 9-{4-[4-(5-chloro-quinolin-2-yl)-piperazin-1-yl]-butyl}-9H-xanthene-9-carboxylic acid-(2,2,2-trifluoro-ethyl)-amide]",melting point,160 °C
"C[C@@H]1CN(c2nc3ccccc3o2)C[C@H](C)N1CCCCC1(C(=O)NCC(F)(F)F)c2ccccc2-c2ccccc21 [Example 46, 9-[4-(4-benzoxazol-2-yl-cis-2,6-dimethyl-piperazin-1-yl)-butyl]-9H-fluorene-9-carboxylic acid-(2,2,2-trifluoro-ethyl)-amide]",melting point,163 to 165 °C
"C[C@@H]1CN(c2nc3ccccc3o2)C[C@H](C)N1CCCCC1(C(=O)NCc2ccc(F)cc2)c2ccccc2-c2ccccc21 [Example 69, 9-[4-(4-benzoxazol-2-yl-cis-2,6-dimethyl-piperazin-1-yl)-butyl]-9H-fluorene-9-carboxylic acid-4-fluoro-benzylamide]",melting point,153 °C
"O=C(NCC(F)(F)F)C1(CCCCN2CCN(c3ccc4cccc(Cl)c4n3)CC2)c2ccccc2Oc2ccccc21 [Example 106, 9-{4-[4-(8-chloro-quinolin-2-yl)-piperazin-1-yl]-butyl}-9H-xanthene-9-carboxylic acid-(2,2,2-trifluoro-ethyl)-amide]",melting point,68 °C
"O=C(NCC(F)(F)F)C1(CCCCN2CCN(c3cnc4ccccc4n3)CC2)c2ccccc2-c2ccccc21 [Example 22, 9-[4-(4-quinoxalin-2-yl-piperazin-1-yl)-butyl]-9H-fluorene-9-carboxylic acid-(2,2,2-trifluoro-ethyl)-amide]",melting point,142 to 145 °C
"C[C@@H]1CN(c2nc3ccccc3n2C)C[C@H](C)N1CCCCC1(C(=O)NCC(F)(F)F)c2ccccc2-c2ccccc21 [Example 43, 9-{4-[cis-2,6-dimethyl-4-(1-methyl-1H-benzimidazol-2-yl)-piperazin-1-yl]-butyl}-9H-fluorene-9-carboxylic acid-(2,2,2-trifluoro-ethyl)-amide]",melting point,77 °C
"O=C(NCC(F)(F)F)C1(CCCCN2CCN(c3ccc4cccc(Br)c4n3)CC2)c2ccccc2-c2ccccc21 [Example 32, 9-{4-[4-(8-bromo-quinolin-2-yl)-piperazin-1-yl]-butyl}-9H-fluorene-9-carboxylic acid-(2,2,2-trifluoro-ethyl)-amide]",melting point,66 °C
"O=C(NCC(F)(F)F)C1(CCCCN2CCN(c3ccc4cc(Cl)ccc4n3)CC2)c2ccccc2Oc2ccccc21 [Example 105, 9-{4-[4-(6-chloro-quinolin-2-yl)-piperazin-1-yl]-butyl}-9H-xanthene-9-carboxylic acid-(2,2,2-trifluoro-ethyl)-amide]",melting point,165 °C
"Cn1c(N2CCN(CCCCC3(C(=O)NCC(F)(F)F)c4ccccc4-c4ccccc43)CC2)nc2cc(Cl)ccc21 [Example 19, 9-{4-[4-(5-chloro-1-methyl-1H-benzimidazol-2-yl)-piperazin-1-yl]-butyl}-9H-fluorene-9-carboxylic acid-(2,2,2-trifluoro-ethyl)-amide]",melting point,155 °C
"Cn1c(N2CCN(CCCCC3(C(=O)NCC(F)(F)C(F)(F)F)c4ccccc4-c4ccccc43)CC2)nc2ccccc21 [Example 87, 9-{4-[4-(1-methyl-1H-benzimidazol-2-yl)-piperazin-1-yl]-butyl}-9H-fluorene-9-carboxylic acid-(2,2,3,3,3-pentafluoro-propyl)-amide]",melting point,120 °C
"C[C@@H]1CN(c2ccc3c(Cl)cccc3n2)C[C@H](C)N1CCCCC1(C(=O)NCc2ccc(F)cc2)c2ccccc2-c2ccccc21 [Example 66, 9-{4-[4-(5-chloro-quinolin-2-yl)-cis-2,6-dimethyl-piperazin-1-yl]-butyl}-9H-fluorene-9-carboxylic acid-4-fluoro-benzylamide]",melting point,136 to 137 °C
"O=C(NCc1ccc(F)cc1)C1(CCCCN2CCN(c3ncc4ccccc4n3)CC2)c2ccccc2-c2ccccc21 [Example 58, 9-[4-(4-quinazolin-2-yl-piperazin-1-yl)-butyl]-9H-fluorene-9-carboxylic acid-4-fluoro-benzylamide]",melting point,160 °C
"O=C(NCc1ccc(F)c(F)c1)C1(CCCCN2CCN(c3ccc4ccccc4n3)CC2)c2ccccc2-c2ccccc21 [Example 85, 9-[4-(4-quinolin-2-yl-piperazin-1-yl)-butyl]-9H-fluorene-9-carboxylic acid-3,4-difluoro-benzylamide]",melting point,141 to 143 °C
"COc1ccc(CNC(=O)C2(CCCCN3CCN(c4ccc5ccccc5n4)CC3)c3ccccc3-c3ccccc32)cc1OC [Example 83, 9-[4-(4-quinolin-2-yl-piperazin-1-yl)-butyl]-9H-fluorene-9-carboxylic acid-3,4-dimethoxy-benzylamide]",melting point,118 °C
"O=C(NCC(F)(F)F)C1(CCCN2CCN(c3nc4ccccc4s3)CC2)c2ccccc2-c2ccccc21 [Example 122, 9-[3-(4-benzothiazol-2-yl-piperazin-1-yl)-propyl]-9H-fluorene-9-carboxylic acid-(2,2,2-trifluoro-ethyl)-amide]",melting point,68 °C
"COc1ccc(CNC(=O)C2(CCCCN3CCN(c4ccc5c(Cl)cccc5n4)CC3)c3ccccc3-c3ccccc32)cc1 [Example 73, 9-{4-[4-(5-chloro-quinolin-2-yl)-piperazin-1-yl]-butyl}-9H-fluorene-9-carboxylic acid-4-methoxy-benzylamide]",melting point,135 to 136 °C
"O=C(NCc1cccs1)C1(CCCCN2CCN(c3ccc4ccccc4n3)CC2)c2ccccc2-c2ccccc21 [Example 90, 9-[4-(4-quinolin-2-yl-piperazin-1-yl)-butyl]-9H-fluorene-9-carboxylic acid-(thiophen-2-ylmethyl)-amide]",melting point,45 to 50 °C
"O=C(NCc1ccc(F)cc1)C1(CCCCN2CCN(c3cnc4ccccc4n3)CC2)c2ccccc2-c2ccccc21 [Example 57, 9-[4-(4-quinoxalin-2-yl-piperazin-1-yl)-butyl]-9H-fluorene-9-carboxylic acid-4-fluoro-benzylamide]",melting point,160 °C
"O=C(NCCc1ccccc1)C1(CCCCN2CCN(c3ccc4ccccc4n3)CC2)c2ccccc2-c2ccccc21 [Example 92, 9-[4-(4-quinolin-2-yl-piperazin-1-yl)-butyl]-9H-fluorene-9-carboxylic acid-(phenethyl)-amide]",melting point,55 to 57 °C
"COc1cccc2ccc(N3CCN(CCCCC4(C(=O)NCC(F)(F)F)c5ccccc5-c5ccccc54)CC3)nc12 [Example 36, 9-{4-[4-(8-methoxy-quinolin-2-yl)-piperazin-1-yl]-butyl}-9H-fluorene-9-carboxylic acid-(2,2,2-trifluoro-ethyl)-amide]",melting point,67 °C
"C[C@H]1CN(c2ccc3ccccc3n2)CCN1CCCCC1(C(=O)NCC(F)(F)F)c2ccccc2Oc2ccccc21 [Example 109, 9-{4-[(S)-2-methyl-4-quinolin-2-yl-piperazin-1-yl]-butyl}-9H-xanthene-9-carboxylic acid-(2,2,2-trifluoro-ethyl)-amide]",melting point,52 to 53 °C
